The test system of this assay is MCF-7 breast cancer cell line. In words: MTT assay against breast cancer cell line. The assay is classed as cell-based. To be noted: Homo sapiens, MCF7, 72 hours after treatment; for cytotoxicity at 100 µM / viability at 100 µM: MCF-7, 100 uM; for cytotoxicity at 100 µM / cytotoxicity at 300 µM: read-out: % Dead cells; for viability at 100 µM / viability at 300 µM: read-out: % Live cells; for cytotoxicity at 300 µM / viability at 300 µM: MCF-7, 300 uM. On the procedure:
In another embodiment, the functionalized maleimides and isomaleimides of Formula (I) are useful as antimicrobials and anti-cancer agents. MTT assay of compounds of Formula (I) is summarized below in Table-1 The compounds were tested against breast cancer cell line at 100 and 300 μM concentrations and % live and % dead cells were determined.
The compounds were evaluated for anti-cancer activity by testing them against breast cancer cell lines obtained from NCCS, Pune, India. The MITT assay was carried out. The assay procedure involves reconstitution of the pre-measured MTT reagent in the assay buffer, followed by its addition to the culture system. After dissolving the formazan crystals in the solubilization solution, results can be directly read on a suitable reader.
• 1. Harvest the cells; • 2. Seed 10,000 cells in 100 μl DMEM media/well in 96-well microtiter plate in triplicate; • 3. Incubate the cells at 37° C., 5% CO2 for 24 hours to achieve morphology; • 4. Treat the cells with varying concentrations of drugs; • 5. Controls included untreated cells and cells treated with 100 uM Doxorubicin; • 6. Incubate the cells for 72 hours after treatment; • 7. Add 10 μl of MTT to each well, including controls; • 8. Wrap the plate with aluminium foil to avoid exposure to light; • 9. Return the plate to the incubator for 2 hours; • 10. Observe the cells under an inverted microscope for presence of intracellular needle-shaped, dark purple coloured precipitate; • 11. When the purple precipitate is clearly visible under the microscope, add 100 μl of solubilization solution to the wells; • 12. Stir gently on a gyratory shaker to enhance dissolution of the crystals; • 13. Read the absorbance on a spectrophotometer or an ELISA reader at 570 nm with a reference wavelength higher than 650 nm.
(In general: Tetrazolium dyes change colour on reduction, which living cells bring about.)

For the molecule `CCOC(=O)CC1=C(Cc2ccc(Cl)cc2)C(=O)O/C1=N\C1CCC(C)CC1` (stereo not drawn) [Compound 3e, Ethyl (Z)-2-(4-(4-chlorobenzyl)-2-((4-methylcyclohexyl)imino)-5-oxo-2,5-dihydrofuran-3-yl)acetate], the cytotoxicity at 100 µM is 45.3%, the viability at 100 µM turned out to be 54.7%, the cytotoxicity at 300 µM turned out to be 53.7% and the viability at 300 µM was found to be 46.3%.

Turning to `CCOC(=O)CC1=C(Cc2ccc3ccccc3c2)C(=O)O/C1=N\C1CCC(C)CC1` (stereo not drawn) [Compound 3j, Ethyl (Z)-2-(2-((4-methylcyclohexyl)imino)-4-(naphthalen-2-ylmethyl)-5-oxo-2,5-dihydrofuran-3-yl)acetate], the cytotoxicity at 100 µM was determined as 51.7%, the viability at 100 µM is 48.3%, the cytotoxicity at 300 µM is 59.7% and the viability at 300 µM was found to be 40.3%.

In the case of `CCOC(=O)CC1=C(Cc2cc(OC)ccc2OC)C(=O)O/C1=N\C1CCC(C)CC1` (stereo not drawn) [Compound 3d, Ethyl (Z)-2-(4-(2,5-dimethoxybenzyl)-2-((4-methylcyclohexyl)imino)-5-oxo-2,5-dihydrofuran-3-yl)acetate], the cytotoxicity at 100 µM came out at 32.9%, the viability at 100 µM amounted to 67.1%, the cytotoxicity at 300 µM was 54.4% and the viability at 300 µM amounted to 45.6%.

Consider `CCOC(=O)CC1=C(Cc2cccc(C(F)(F)F)c2)C(=O)O/C1=N\C1CCC(C)CC1` (stereo not drawn) [Compound 3h, Ethyl (Z)-2-(2-((4-methylcyclohexyl)imino)-5-oxo-4-(3-(trifluoromethyl)benzyl)-2,5-dihydrofuran-3-yl)acetate], for which the cytotoxicity at 100 µM was 49.1%, the viability at 100 µM was found to be 50.9%, the cytotoxicity at 300 µM worked out at 60.9% and the viability at 300 µM is 39.1%.

Consider `CCOC(=O)CC1=C(Cc2ccccc2F)C(=O)O/C1=N\C1CCC(C)CC1` (stereo not drawn) [Compound 3f, Ethyl (Z)-2-(4-(2-fluorobenzyl)-2-((4-methylcyclohexyl)imino)-5-oxo-2,5-dihydrofuran-3-yl)acetate], for which the cytotoxicity at 100 µM came out at 26.6%, the viability at 100 µM worked out at 73.4%, the cytotoxicity at 300 µM is 49.6% and the viability at 300 µM was determined as 50.4%.

On to `CCOC(=O)CC1=C(Cc2cccc(Oc3ccccc3)c2)C(=O)O/C1=N\C1CCC(C)CC1` (stereo not drawn) [Compound 3c, Ethyl (Z)-2-(2-((4-methylcyclohexyl)imino)-5-oxo-4-(3-phenoxybenzyl)-2,5-dihydrofuran-3-yl) acetate], for which the cytotoxicity at 100 µM came to 32.9%, the viability at 100 µM turned out to be 67.1%, the cytotoxicity at 300 µM was found to be 34.8% and the viability at 300 µM was found to be 65.2%.

On to `CCOC(=O)CC1=C(Cc2c3ccccc3cc3ccccc23)C(=O)O/C1=N\C1CCC(C)CC1` (stereo not drawn) [Compound 3k, Ethyl (Z)-2-(4-(anthracen-9-ylmethyl)-2-((4-methylcyclohexyl)imino)-5-oxo-2,5-dihydrofuran-3-yl)acetate], for which the cytotoxicity at 100 µM is 27.4%, the viability at 100 µM stood at 72.5%, the cytotoxicity at 300 µM was found to be 33% and the viability at 300 µM amounted to 67%.

As for `CCOC(=O)CC1=C(C(c2ccccc2)c2ccccc2)C(=O)O/C1=N\C1CCC(C)CC1` (stereo not drawn) [Compound 3p, Ethyl (Z)-2-(4-benzhydryl-2-((4-methylcyclohexyl)imino)-5-oxo-2,5-dihydrofuran-3-yl)acetate], the cytotoxicity at 100 µM was 43.5%, the viability at 100 µM came out at 56.5%, the cytotoxicity at 300 µM was 51.1% and the viability at 300 µM was 48.9%.

On to `CCOC(=O)CC1=C(Cc2ccc(F)c(F)c2)C(=O)O/C1=N\C1CCC(C)CC1` (stereo not drawn) [Compound 3g, Ethyl (Z)-2-(4-(3,4-difluorobenzyl)-2-((4-methylcyclohexyl)imino)-5-oxo-2,5-dihydrofuran-3-yl)acetate], for which the cytotoxicity at 100 µM was determined as 26.4%, the viability at 100 µM stood at 73.6%, the cytotoxicity at 300 µM amounted to 47.2% and the viability at 300 µM came out at 52.8%.

The values above are taken from patent publication US12729180B2, “Functionalized Maleimides and Isomaleimides and a process for preparation thereof” (COUNCIL OF SCIENTIFIC AND INDUSTRIAL RESEARCH, priority 2021, dated 2026).
